{"source": "a melting point compilation (Tetko et al.; mined from patent text by program, amines drawn as free bases though some values may be those of a salt)", "note": "Residues, ends and D or L forms follow the SMILES beside them. *: point of attachment. Cbz = O=C(OCc1ccccc1)*"}
{"units": {"melting point": "°C"}}
{"smiles": "CC12CC(O)C3c4ccccc4C(=O)CC3C1CCC2O", "note": "(stereo not given)", "melting point": "205 to 208"}
{"smiles": "NN=CNCCCCNC(=O)[C@@H]1CCCN1C(=O)[C@@H](CCC(N)=O)NS(=O)(=O)c1ccc2ccccc2c1", "melting point": "72 to 74"}
{"smiles": "Cc1ccc(S(=O)(=O)NC(=O)/C=C/c2c(C)nn(C)c2-n2ccc3cccnc32)cc1", "melting point": "237 to 238"}
{"smiles": "CC(C)N1CCC(n2cc(C3=C(c4cn(C)c5ccccc45)C(=O)NC3=O)c3ccccc32)CC1", "melting point": "> 250"}
{"smiles": "O=C1C[C@@H]2[C@@H](CC[C@@H](O)COc3cccc(Cl)c3)[C@H](O)C[C@@H]2O1", "melting point": "102 to 104"}
{"smiles": "CCCCn1cc(-c2nnnn2C)c(=O)c2ccccc21", "melting point": "100 to 105"}
{"smiles": "OCc1ccc(OCc2ccccc2)cc1OCc1ccccc1", "melting point": "84 to 85"}
{"smiles": "[N-]=[N+]=C1c2ccccc2-c2ccc(Cl)cc21", "melting point": "102 to 108"}
{"smiles": "NCc1nnc(-c2ncn3c2[C@@H]2CCCN2C(=O)c2sccc2-3)o1", "melting point": "214 to 216"}
{"smiles": "CNc1ccc(C#CCCN2CC=C(c3ccccc3)CC2)nc1", "melting point": "164 to 166"}
{"smiles": "N#CCCC=NNc1ccc(CS(N)(=O)=O)cc1", "melting point": "175 to 176"}
{"smiles": "O=c1[nH]c2cc(Br)c3c(c2[nH]c1=O)CN(CCCc1ccccc1)CC3", "melting point": "288 to 293"}
{"smiles": "CC1CC(=O)c2cccc(C#N)c21", "note": "(stereo not given)", "melting point": "109 to 111"}
{"smiles": "CCC(=O)C(=Cc1ccccc1)c1cc(C)cs1", "melting point": "98 to 99"}
{"smiles": "COC(=O)C(Cc1ccc(O)cc1)NC(=O)C(CO)NC(=O)C(Cc1c[nH]c2ccccc12)NC(=O)OCc1ccccc1", "note": "(stereo not drawn) (Cbz-Trp-Ser-Tyr-OMe; configuration not given here)", "melting point": "149 to 152"}
{"smiles": "O=C(CBr)OCCCCOC(=O)CBr", "melting point": "62 to 62.5"}
{"smiles": "CCCCCCCCCCCCCCCCCC(=O)Nc1cccc(C(=O)N(CC(=O)OCC)CC(=O)OCC)c1", "melting point": "76 to 79"}
{"smiles": "CCCc1c(OCCCCCC(=O)NCCc2ccncc2)ccc(C(C)=O)c1O", "melting point": "80 to 83"}
{"smiles": "CC(C)(CC(O)(Cn1ccc(=O)c2sccc21)C(F)(F)F)c1cc(S(C)(=O)=O)cc2c1OCC2", "note": "(stereo not given)", "melting point": "163 to 165"}
{"smiles": "O=C(Nc1ccc(-n2nc(C(F)(F)F)cc2C2CC2)c(F)c1)c1ccc2nn[nH]c2c1", "melting point": "235 to 237"}
{"smiles": "COC(=O)[C@@H]1C(=O)c2cc(OCc3ccccc3)ccc2[C@H]1c1ccc2c(c1)OCO2", "note": "(racemic)", "melting point": "148 to 150"}
{"smiles": "O=Cc1ccc(-c2ccc3ncnc(Nc4ccc(OCc5cccc(F)c5)c(Cl)c4)c3c2)o1", "melting point": "230 to 234"}
{"smiles": "CC(=O)C1(C)COC(C)(C)OC1", "melting point": "48 to 50"}
{"smiles": "CC(=O)Nc1nc2c(C)cnc(-c3cccc([N+](=O)[O-])c3)n2n1", "melting point": "245 to 247"}
{"smiles": "CCCCCNC(=O)CC(c1ccc(OC)c(OC)c1)N1C(=O)c2ccccc2C1=O", "note": "(stereo not given)", "melting point": "140 to 142"}
{"smiles": "CCOCc1nc2c(c(C)c(C)n3nnnc23)n1CCNC(=O)N1CCOCC1", "melting point": "205 to 207"}
{"smiles": "O=S(=O)(c1cccs1)N(CC(F)(F)F)c1cccc2cc(-c3nccs3)[nH]c12", "melting point": "194 to 195"}
{"smiles": "Cc1ccc([N+](=O)[O-])cc1Nc1cccc(Br)c1", "melting point": "114 to 116"}
{"smiles": "FC(F)(F)Oc1ccc2c(c1)nc(/C=C/c1ccccc1)n2-c1ccccn1", "melting point": "92 to 93"}
{"smiles": "O=C1C=C(O)CC(c2ccccc2)O1", "note": "(stereo not given)", "melting point": "145 to 146"}
{"smiles": "CC(N)C(C)n1ncn(-c2ccc(N3CCN(c4ccc(O)cc4)CC3)cc2)c1=O", "note": "(stereo not given)", "melting point": 237}
{"smiles": "CCCCCCCCCCCCCCCCCCS(=O)c1cc2ccccc2cc1OC(C)=O", "note": "(stereo not given)", "melting point": "91 to 93"}
{"smiles": "CCOC(=O)C1C(=C=S)NCC1CCc1ccc(C(=O)O)cc1", "note": "(stereo not given)", "melting point": "145 to 148"}
{"smiles": "CCOC(=O)c1oc2ccc(Cl)cc2c1C", "melting point": "80 to 82"}
{"smiles": "CN1CC[C@@H](c2c(O)cc(O)c3c(=O)cc(-c4cccc(F)c4)oc23)[C@@H]1CO", "melting point": "218 to 220"}
{"smiles": "CC(C)(C)OC(=O)NCCn1cc(C#N)c(-c2cccc(F)c2)c1Cl", "melting point": "97 to 99"}
{"smiles": "COc1ccc(-c2c(=O)[nH]c3cc(Cl)c(Cl)cc3[n+]2[O-])cc1", "melting point": "262 to 264"}
{"smiles": "CN1CCc2cc(O)c(O)c(Sc3ccc([N+](=O)[O-])cc3)c2CC1", "melting point": "125 to 127"}
{"smiles": "C[C@@H](n1cnc2cc(N3CCOCC3)ccc2c1=O)[C@](O)(Cn1cncn1)c1ccc(F)cc1F", "melting point": "196 to 197"}
{"smiles": "C=CCN1CC(C)N(C(c2cccc(O)c2)c2ccc(C(=O)N(CC)CC)s2)CC1C", "note": "(stereo not given)", "melting point": "113 to 116"}
{"smiles": "C=C1C(O)C(CO)OC1n1cc(C)c(=O)[nH]c1=O", "note": "(stereo not given)", "melting point": "161 to 162"}
{"smiles": "CC(=C1SC(=O)NC1=O)c1ccc(OCCOc2c(-c3ccc(F)cc3)n(C)c3ccccc3c2=O)c(F)c1", "melting point": "220 to 222"}
{"smiles": "CCCCCCCNC(=O)Nc1ccccc1C(=O)Nc1ccc(CCCCCCC)cc1", "melting point": "155 to 157"}
{"smiles": "OCCCc1ccc2c(c1)Cc1cc(CCCO)ccc1-2", "melting point": "160 to 180"}
{"smiles": "Cc1nc(C=NN(C)C)c2n1-c1ccc(Cl)cc1C(c1ccccc1Cl)=NC2", "melting point": "238 to 242"}
{"smiles": "COc1ccc2c(c1)C(CCNC(=O)C(F)(F)F)C(c1ccccc1)C2", "note": "(stereo not given)", "melting point": "109 to 111"}
{"smiles": "CC(C)C(=O)N(Cc1ccccc1)c1nnn(C)n1", "melting point": 65}
{"smiles": "CC(C(=O)O)c1ccc2cc(OCc3ccc4ccccc4n3)ccc2c1", "note": "(stereo not given)", "melting point": "186 to 187"}
{"smiles": "N#Cc1ccc2c(c1)NCc1ccccc1O2", "melting point": "104 to 105"}
{"smiles": "Cc1ccccc1-c1c(NC(=O)OC(C)(C)C)c(=O)oc2cc3c(cc12)CCC3", "melting point": "154 to 155"}
{"smiles": "CC(C)N(C(=O)C(F)(F)F)C(C#N)c1ccc(Cl)cc1", "note": "(stereo not given)", "melting point": "78.5 to 79.5"}
{"smiles": "CCOC(=O)c1cn(CCF)c2nc(N3CCC(NC(C)=O)C3)c(F)cc2c1=O", "note": "(stereo not given)", "melting point": "269 to 270"}
{"smiles": "Cc1oc(-c2ccccc2)nc1CCOc1ccc(I)cn1", "melting point": "105 to 106"}
{"smiles": "Cc1ccc(-c2nccc3c(CO)cccc23)cc1", "melting point": 195}
{"smiles": "Cc1cc(C)c(S(=O)(=O)ON)c(C)c1", "melting point": "90 to 91"}
{"smiles": "CCNc1nc(Cl)c(Br)c(NC2CC2)n1", "melting point": "100 to 101"}
{"smiles": "CC(C)NC1=NS(=O)(=O)c2cc(N)ccc2N1", "melting point": "278 to 283"}
{"smiles": "COc1cc2c(cc1C(F)(F)F)N(C(=O)Nc1cncc(-c3cnccc3C)c1)CC2", "melting point": "125 to 128"}
{"smiles": "CC(C)c1cc(C(C)C)c(CC(=O)NS(=O)(=O)Oc2c(C(C)C)cc(N)cc2C(C)C)c(C(C)C)c1", "melting point": "153 to 155"}
{"smiles": "COCCNC(=O)c1cc2c(ccc3cnn(C[C@H](C)N)c32)o1", "melting point": "75 to 76"}
{"smiles": "Cc1cc(=O)[nH]c2c(C)cc(Br)cc12", "melting point": "> 300"}
{"smiles": "CC(C)NCC(O)COc1ccc(CCSCC2CCC2)cc1", "note": "(stereo not given)", "melting point": 52}
{"smiles": "CCCCCCCCC(O)C=Cc1cccc(Oc2cccc(C(=O)O)c2)n1", "note": "(racemic)", "melting point": "85 to 87"}
{"smiles": "O=C(OCc1ccccc1)N1CCC2(CC1)CC(=O)N(OC[N+](=O)[O-])C2=O", "melting point": "137 to 139"}
{"smiles": "CNN(NC)C(=O)Sc1cc(C)ccc1C(=O)OC", "melting point": "79.4 to 80"}
{"smiles": "CCS(=O)(=O)N(C(C)=O)c1cc(-n2nc3ccc(Cl)cn3c2=O)c(F)cc1C#N", "melting point": "220 to 222"}
{"smiles": "Cc1ccc2oc(N(C=O)[C@@H](Cc3ccccn3)c3ncc(-c4ccc(N5CCOCC5)cc4)n3C)cc2c1", "melting point": "125 to 127"}
{"smiles": "C=C1N(CCCC)C(=O)OC12CCN(CCC=C(c1ccc(Cl)cc1)c1ccc(Cl)cc1)CC2", "melting point": "110 to 111"}
{"smiles": "Cc1cc(C)c([N+](=O)[O-])cc1NC(=O)CC#N", "melting point": "229 to 230"}
{"smiles": "O=C(NCC1Cc2ccc3c(c2O1)CCCC3)OCc1ccccc1", "note": "(stereo not given)", "melting point": "88 to 90"}
